{"source": "patent US12552812B2", "about": "“Pyridone multiple-membered ring derivatives and use thereof” (priority 2021, dated 2026)", "key": {"[1]": {"test_system": "Baloxavir-resistant A/PR/8/34 (H1N1) I38T influenza virus strain", "assay_type": "cell-based"}, "[2]": {"test_system": "Baloxavir-resistant A/PR/8/34 (H1N1) I38T virus strain", "design": "species or system BALB/c mice", "conditions": "mouse, in vivo"}}, "note": "pEC50: −log10 of the molar value."}
{"smiles": "O=C1c2c(O)c(=O)ccn2N([C@H]2c3ccc(F)c(F)c3C[Se]c3cccnc32)[C@@H]2COCCN12", "note": "[Compound 3]", "values": [{"measurement": "pEC50", "setting": "[1]", "result": 7.24}]}
{"smiles": "COC(=O)OCOc1c2n(ccc1=O)N([C@H]1c3ccc(F)c(F)c3C[Se]c3cccnc31)[C@@H]1COCCN1C2=O", "note": "[Compound 4]", "values": [{"measurement": "Survival rate (%)", "setting": "[2]", "result": 100, "unit": "%"}, {"measurement": "body weight of the mice", "setting": "[2]", "result": "hardly decreased"}]}
